Measurements reported in US20030225152A1, “3-(Arylamino)methylene-1, 3-dihydro-2h-indol-2-ones as kinase inhibitors” (priority 2001, published 2003).

How the values were obtained:
[1] = test system: VEGF induced increases in intracellular calcium levels in HUVEC (human umbilical vein endothelial cells); assay: VEGF Stimulated Ca++ Signal in vitro (FLIPR); format: cell-based; conditions: VEGF 5 ng/mL; for IC50: 0.01 to 10.0 μM
Method in brief: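 IC50 values derive from % inhibition of the VEGF (5 ng/mL) calcium response, taken as max-min fluorescence at 516 nm in Fluo-4-loaded HUVEC. Compounds (0.1% DMSO final) were added 30 min before stimulation, at 10 μM or across 0.01–10.0 μM.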

[2] = molecular target: T1, cytoplasmic domain of the human VEGF receptor (VEGFR-2) (Homo sapiens, UniProt P35968); assay: KDR Assay; format: biochemical; conditions: His-VEGFR-2; 3.6 μM ATP
T1 construct: The cytoplasmic domain of the human VEGF receptor (VEGFR-2) was expressed as a Histidine-tagged fusion protein; Histidine tag
Description: The cytoplasmic domain of the human VEGF receptor (VEGFR-2) was expressed as a Histidine-tagged fusion protein following infection of insect cells using an engineered baculovirus. His-VEGFR-2 was purified to homogeneity, as determined by SDS-PAGE, using nickel resin chromatography. Kinase assays were performed in 96 well microtiter plates that were coated overnight with 30 μg of poly-Glu-Tyr (4:1) in 10 mM Phosphate Buffered Saline (PBS), pH 7.2-7.4. The plates were incubated with 1% BSA and then washed four times with PBS prior to starting the reaction. Reactions were carried out in 120 μL reaction volumes containing 3.6 μM ATP in kinase buffer (50 mM Hepes buffer pH 7.4, 20 mM MgCl2, 0.1 mM MnCl2 and 0.2 mM Na3VO4). Test compounds were reconstituted in 100% DMSO and added to the reaction to give a final DMSO concentration of 5%. Reactions were initiated by the addition 0.5 ng of purified protein. Following a ten minute incubation at 25° C., the reactions were washed four times with PBS containing 0.05% Tween-20. 100 μl of a monoclonal anti-phosphotyrosine antibody-peroxidase conjugate was diluted 1:10000 in PBS-Tween-20 and added to the wells for 30 minutes. Following four washes with PBS-Tween-20, 100 μl of O-phenylenediamine Dihydrochloride in Phosphate-citrate buffer, containing urea hydrogen peroxide, was added to the wells for 7 minutes as a colorimetric substrate for the peroxidase. The reaction was terminated by the addition of 100 μl of 2.5N H2SO4 to each well and read using a microplate ELISA reader set at 492 nm. IC50 values for compound inhibition were calculated directly from graphs of optical density (arbitrary units) versus compound concentration following subtraction of blank values.

T1 sequence (P35968 786-1356): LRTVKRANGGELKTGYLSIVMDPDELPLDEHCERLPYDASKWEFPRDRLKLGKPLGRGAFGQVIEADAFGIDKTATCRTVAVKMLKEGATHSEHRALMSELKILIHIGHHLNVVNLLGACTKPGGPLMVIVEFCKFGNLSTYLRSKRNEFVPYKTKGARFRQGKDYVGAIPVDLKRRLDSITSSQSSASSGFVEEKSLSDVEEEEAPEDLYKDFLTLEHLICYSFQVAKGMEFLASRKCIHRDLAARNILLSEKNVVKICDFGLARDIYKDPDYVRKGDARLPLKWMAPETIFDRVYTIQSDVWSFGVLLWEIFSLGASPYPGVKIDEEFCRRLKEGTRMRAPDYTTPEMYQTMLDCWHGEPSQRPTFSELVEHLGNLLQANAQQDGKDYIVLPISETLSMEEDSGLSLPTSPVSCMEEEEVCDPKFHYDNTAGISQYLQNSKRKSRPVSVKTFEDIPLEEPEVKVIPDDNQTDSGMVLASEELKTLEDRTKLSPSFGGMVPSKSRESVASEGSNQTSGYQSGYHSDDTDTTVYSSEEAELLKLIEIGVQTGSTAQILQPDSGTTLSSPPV

| Compound | IC50 [2] [nM] | inhibition at 10 µM ([1]; Homo sapiens) [%] | IC50 ([1]; Homo sapiens) [nM] | IC50 [1] [nM] |
| --- | --- | --- | --- | --- |
| CCc1ccc(NC=C2C(=O)Nc3ccccc32)cc1 [Example 5, 3-[(4-Ethyl-phenylamino)-methylene]-1,3-dihydro-indol-2-one] | 480 | 77.3 | 1820 |  |
| CCc1cccc(NC=C2C(=O)Nc3ccccc32)c1 [Example 6] | 520 | 90.1 | 1840 |  |
| COc1ccc(NC=C2C(=O)Nc3ccccc32)cc1 [Example 7, 3-[(4-Methoxy-phenylamino)-methylene]-1,3-dihydro-indol-2-one] | 690 | 94.5 | ≤ 1000 | 950 |
| O=C1Nc2ccccc2C1=CNc1cccc(O)c1 [Example 15, 3-[(3-Hydroxy-phenylamino)-methylene]-1,3-dihydro-indol-2-one] | 910 | 93.7 |  |  |
| COc1cc(NC=C2C(=O)Nc3ccccc32)cc(OC)c1 [Example 16, 3-[(3,5-Dimethoxy-phenylamino)-methylene]-1,3-dihydro-indol-2-one] | 1270 | 50 | ≥ 10000 |  |
| CC(C)(C)c1ccc(NC=C2C(=O)Nc3ccccc32)cc1 [Example 17, 3-[(4-tert-Butyl-phenylamino)-methylene]-1,3-dihydro-indol-2-one] | 790 | 76.5 | 3000 |  |
| Cc1ccc(NC=C2C(=O)Nc3ccccc32)cc1C [Example 20, 3-[(3,4-Dimethyl-phenylamino)-methylene]-1,3-dihydro-indol-2-one] | 1210 | 63 | 1820 |  |

Continued, in another order:

| IC50 [2] [nM] | Compound | inhibition at 10 µM ([1]; Homo sapiens) [%] | IC50 ([1]; Homo sapiens) [nM] | IC50 [1] [nM] |
| --- | --- | --- | --- | --- |
| 720 | COc1ccc(NC=C2C(=O)Nc3ccccc32)cc1F [Example 21, 3-[(3-Fluoro-4-methoxy-phenylamino)-methylene]-1,3-dihydro-indol-2-one] | 88 | 1500 |  |
| 680 | N#Cc1ccc(NC=C2C(=O)Nc3ccccc32)cc1 [Example 29, 3-[(4-Cyanophenylamino)-methylene]-1,3-dihydro-indol-2-one] | 81.5 | 7290 |  |
| 570 | O=C1Nc2ccccc2C1=CNc1ccc2[nH]ccc2c1 [Example 31, 3-[(5-Indolylamino)-methylene]-1,3-dihydro-indol-2-one] | 98.6 | ≤ 1000 | 720 |
| 600 | O=C1Nc2ccccc2C1=CNc1ccc2[nH]ncc2c1 [Example 32, 3-[(5-Indazolylamino)-methylene]-1,3-dihydro-indol-2-one] | 72.2 | 2660 |  |
| 880 | NC(=O)c1ccc(NC=C2C(=O)Nc3ccccc32)cc1 [Example 33, 3-[(4-Benzamidylamino)-methylene]-1,3-dihydro-indol-2-one] | 95.9 | 1350 |  |
| 420 | O=C1Nc2ccc(F)cc2C1=CNc1ccc(NCCCN2CCOCC2)cc1 [Example 300, 5-Fluoro-3-{[4-(3-morpholin-4-yl-propylamino)-phenylamino]-methylene}-1,3-dihydro-indol-2-one] |  |  |  |
| 620 | O=C1Nc2ccccc2C1=CNc1ccc(CCN2CCOCC2)cc1 [Example 306, 3-{[4-(2-Morpholin-4-yl-ethyl)-phenylamino]-methylene}-1,3-dihydro-indol-2-one] |  |  |  |
| 120 | Cc1cccc2c1C(=CNc1ccc(CCN3CCOCC3)cc1)C(=O)N2 [Example 308, 4-Methyl-3-{[4-(2-morpholin-4-yl-ethyl)-phenylamino]-methylene}-1,3-dihydro-indol-2-one] |  |  |  |
| 230 | O=C1Nc2ccc(F)cc2C1=CNc1ccc(CCN2CCOCC2)cc1 [Example 310, 5-Fluoro-3-{[4-(2-morpholin-4-yl-ethyl)-phenylamino]-methylene}-1,3-dihydro-indol-2-one] |  |  |  |
| 100 | O=C1Nc2cc(F)ccc2C1=CNc1ccc(CCN2CCOCC2)cc1 [Example 311, 6-Fluoro-3-{[4-(2-morpholin-4-yl-ethyl)-phenylamino]-methylene}-1,3-dihydro-indol-2-one] |  |  |  |
